The values below come from US20100016371A1, “Indole Compounds” (Glaxo Group Limited, priority 2006, published 2010).

For orientation: IC50 means the concentration needed to halve the response being measured.

Test [1] deals with T1, human EP1 receptor (Homo sapiens, UniProt P34995).
T1 construct: expressed in transfected cells; host or cells: CHO-K1 cells, pCIN vector
T1 sequence (P34995 1-402): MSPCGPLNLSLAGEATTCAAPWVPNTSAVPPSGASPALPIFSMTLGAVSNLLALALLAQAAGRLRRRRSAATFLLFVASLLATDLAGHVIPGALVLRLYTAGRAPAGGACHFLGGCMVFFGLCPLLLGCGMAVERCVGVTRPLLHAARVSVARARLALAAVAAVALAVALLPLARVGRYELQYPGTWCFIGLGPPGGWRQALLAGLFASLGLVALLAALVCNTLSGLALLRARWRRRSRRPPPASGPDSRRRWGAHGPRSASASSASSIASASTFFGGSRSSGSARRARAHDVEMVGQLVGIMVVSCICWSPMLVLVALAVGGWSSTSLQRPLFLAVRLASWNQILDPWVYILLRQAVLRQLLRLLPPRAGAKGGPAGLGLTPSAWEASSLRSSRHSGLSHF
The test can be described thus: human EP1 calcium mobilisation assay (FLIPR, CHO-K1 cells). Type of test: cell-based. The following applies: antagonism of PGE2-induced calcium mobilisation, CHO-K1 cells expressing EP1; averages of a number of experiments; read-out: functional pKi (converted). The protocol:
(§1) Biological Activity at EP1 and EP3 Receptors
(§2) Briefly, the antagonist properties of compounds are assessed by their ability to inhibit the mobilisation of intracellular calcium ([Ca^2+]i) in response to activation of EP1 or EP3 receptors by the natural agonist hormone prostaglandin E2 (PGE2). Increasing concentrations of antagonist reduce the amount of calcium that a given concentration of PGE2 can mobilise. The net effect is to displace the PGE2 concentration-effect curve to higher concentrations of PGE2. The amount of calcium produced is assessed using a calcium-sensitive fluorescent dye such as Fluo-4, AM and a suitable instrument such as a Fluorimetric Imaging Plate Reader (FLIPR). Increasing amounts of [Ca^2+]i produced by receptor activation increase the amount of fluorescence produced by the dye and give rise to an increasing signal. The signal may be detected using the FLIPR instrument and the data generated may be analysed with suitable curve-fitting software.
The human EP1 or EP3 calcium mobilisation assay (hereafter referred to as ‘the calcium assay’) utilises Chinese hamster ovary-K1 (CHO-K1) cells into which a stable (pCIN; BioTechniques 20(1996): 102-110) vector containing either EP1 or EP3 cDNA has previously been transfected. Cells are cultured in suitable flasks containing culture medium such as DMEM:F-12 supplemented with 10% v/v foetal calf serum, 2 mM L-glutamine, 0.25 mg/ml geneticin, 100 μM flurbiprofen and 10 μg/ml puromycin.
For assay, cells are harvested using a proprietary reagent that dislodges cells such as Versene. Cells are re-suspended in a suitable quantity of fresh culture media for introduction into a 384-well plate. Following incubation for 24 hours at 37° C. the culture media is replaced with a medium containing Fluo-4 and the detergent pluronic acid, and a further incubation takes place. Concentrations of compounds are then added to the plate in order to construct concentration-effect curves. This may be performed on the FLIPR in order to assess the agonist properties of the compounds. Concentrations of PGE2 are then added to the plate in order to assess the antagonist properties of the compounds.
The data so generated may be analysed by means of a computerised curve-fitting routine. The concentration of compound that elicits a half-maximal inhibition of the calcium mobilisation induced by PGE2 (pIC50) may then be estimated.

Test [2] has as its target T2, human prostanoid EP1 receptor (Homo sapiens, UniProt P34995).
T2 construct: expressed in transfected cells; host or cells: CHO-K1 cells, membrane fraction
T2 sequence (P34995 1-402): T1 sequence (P34995 1-402)
As to the kind of experiment: Binding assay for the human prostanoid EP1 receptor (competition with [3H]-PGE2). The following applies: [3H]-PGE2 competition, CHO-K1 cell membranes; averages of a number of experiments. The protocol:
Binding Assay for the Human Prostanoid EP1 Receptor
Competition assay using [^3H]-PGE2
Compound potencies are determined using a radioligand binding assay. In this assay compound potencies are determined from their ability to compete with tritiated prostaglandin E2 ([^3H]-PGE2) for binding to the human EP1 receptor.
This assay utilises Chinese hamster ovary-K1 (CHO-K1) cells into which a stable vector containing the EP1 cDNA has previously been transfected. Cells are cultured in suitable flasks containing culture medium such as DMEM:F-12 supplemented with 10% v/v foetal calf serum, 2 mM L-glutamine, 0.25 mg/ml geneticin, […] puromycin and 10 μM indomethacin.
Cells are detached from the culture flasks by incubation in calcium and magnesium free phosphate buffered saline containing 1 mM disodium ethylenediaminetetraacetic acid (Na2EDTA) and 10 μM indomethacin for 5 min. The cells are isolated by centrifugation at 250×g for 5 mins and suspended in an ice cold buffer such as 50 mM Tris, 1 mM Na2EDTA, 140 mM NaCl, 10 μM indomethacin (pH 7.4). The cells are homogenised using a Polytron tissue disrupter (2×10s burst at full setting), centrifuged at 48,000×g for 20 mins and the pellet containing the membrane fraction is washed (optional) three times by suspension and centrifugation at 48,000×g for 20 mins. The final membrane pellet is suspended in an assay buffer such as 10 mM 2-[N-morpholino]ethanesulphonic acid, 1 mM Na2EDTA,10 mM MgCl2 (pH 6). Aliquots are frozen at −80° C. until required.
For the binding assay the cell membranes, competing compounds and [^3H]-PGE2 (3 nM final assay concentrations are incubated in a final volume of 100 μl for 30 min at 30° C. All reagents are prepared in assay buffer. Reactions are terminated by rapid vacuum filtration over GF/B filters using a Brandell cell harvester. The filters are washed with ice cold assay buffer, dried and the radioactivity retained on the filters is measured by liquid scintillation counting in Packard TopCount scintillation counter.
The data are analysed using non linear curve fitting techniques to determine the concentration of compound producing 50% inhibition of specific binding (IC50).

Test [3] has as its target T3, human EP3 receptor (Homo sapiens, UniProt P43115).
T3 construct: expressed in transfected cells; host or cells: CHO-K1 cells, pCIN vector
T3 sequence (P43115 1-390): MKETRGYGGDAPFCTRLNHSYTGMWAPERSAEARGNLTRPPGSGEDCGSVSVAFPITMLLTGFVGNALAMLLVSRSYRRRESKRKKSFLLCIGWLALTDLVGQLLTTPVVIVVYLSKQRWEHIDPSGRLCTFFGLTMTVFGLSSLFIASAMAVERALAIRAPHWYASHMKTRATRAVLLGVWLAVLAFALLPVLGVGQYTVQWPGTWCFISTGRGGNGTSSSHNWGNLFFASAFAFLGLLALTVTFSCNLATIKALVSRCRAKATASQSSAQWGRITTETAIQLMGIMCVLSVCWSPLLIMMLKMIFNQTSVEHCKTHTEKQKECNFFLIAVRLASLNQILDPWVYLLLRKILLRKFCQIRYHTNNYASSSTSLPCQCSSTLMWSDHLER
The test can be described thus: human EP3 calcium mobilisation assay (FLIPR, CHO-K1 cells). It counts as cell-based. The following applies: antagonism of PGE2-induced calcium mobilisation, CHO-K1 cells expressing EP3; averages of a number of experiments; read-out: functional pKi (converted). How it is done: as §1
as §2, with “software. […]” for “software.”
For assay, cells are harvested using a proprietary reagent that dislodges cells such as Versene. Cells are re-suspended in a suitable quantity of fresh culture media for introduction into a 384-well plate. […]
The data so generated may be analysed by means of a computerised curve-fitting routine. […]
In general terms: A change in cytosolic calcium serves as a functional read-out for many receptors and channels.

`CC(C)Cc1cn(-c2ccc(C(=O)O)s2)c2cc(Cl)ccc12` [Example 22, 5-[6-Chloro-3-(2-methylpropyl)-1H-indol-1-yl]-2-thiophenecarboxylic acid]: in test [1], the Ki was at most 100 nM. The 50% inhibitory concentration (IC50) in test [2] is at most 100 nM. Regarding `CC(C)Cc1cn(-c2cccc(C(=O)O)n2)c2cc(Cl)ccc12` [Example 19, 6-[6-Chloro-3-(2-methylpropyl)-1H-indol-1-yl]-2-pyridinecarboxylic acid], the Ki in test [1] is at most 100 nM. In test [2], this compound had an IC50 of at most 100 nM.

Take `CC(C)Cc1cn(-c2nc(C(=O)O)cs2)c2ccccc12` [Example 10, 2-[3-(2-Methylpropyl)-1H-indol-1-yl]-1,3-thiazole-4-carboxylic acid]: in test [1], the Ki is at most 100 nM. Turning to `CC(C)(C)CCc1cn(-c2nc(C(=O)O)cs2)c2cc(Cl)ccc12` [Example 2, 2-[6-Chloro-3-(3,3-dimethylbutyl)-1H-indol-1-yl]-1,3-thiazole-4-carboxylic acid], the Ki in test [1] is at most 100 nM. In test [2], this compound had a concentration for half-maximal inhibition (IC50) of at most 100 nM. For the compound `CC(C)Cc1cn(-c2ncc(C(=O)O)s2)c2cc(Cl)ccc12` [Example 21, 2-[6-Chloro-3-(2-methylpropyl)-1H-indol-1-yl]-1,3-thiazole-5-carboxylic acid], the Ki in test [1] was at most 100 nM. The 50% inhibitory concentration (IC50) in test [2] is at most 100 nM.

In the case of `CC(C)Cc1cn(-c2ccc(C(=O)O)o2)c2cc(Cl)ccc12` [Example 18, 5-[6-Chloro-3-(2-methylpropyl)-1H-indol-1-yl]-2-furancarboxylic acid], the Ki in test [1] was at most 100 nM. In test [2], the IC50 is at most 100 nM. Consider `CC(C)Cc1cn(Cc2nc(C(=O)O)cs2)c2cc(Cl)ccc12` [Example 6, 2-{[6-Chloro-3-(2-methylpropyl)-1H-indol-1-yl]methyl}-1,3-thiazole-4-carboxylic acid], for which the Ki in test [1] was at most 100 nM. Further, the IC50 in test [2] was at most 100 nM. Regarding `CC(C)Cc1nn(-c2nc(C(=O)O)cs2)c2cc(Cl)ccc12` [Example 11, 2-[6-Chloro-3-(2-methylpropyl)-1H-indazol-1-yl]-1,3-thiazole-4-carboxylic acid], the Ki in test [1] is at most 100 nM. For the same compound, in test [2], the half-maximal inhibitory concentration (IC50) is at most 100 nM.

For `CCc1cn(-c2nc(C(=O)O)cs2)c2cc(Cl)ccc12` [Example 20, 2-(6-Chloro-3-ethyl-1H-indol-1-yl)-1,3-thiazole-4-carboxylic acid], the Ki in test [1] is at most 100 nM; in test [3] it was at least 2000 nM. For the compound `CC(C)Cc1cn(-c2nc(C(=O)O)co2)c2cc(Cl)ccc12` [Example 5, 2-[6-Chloro-3-(2-methylpropyl)-1H-indol-1-yl]-1,3-oxazole-4-carboxylic acid], the Ki in test [1] is at most 100 nM. Further, the IC50 in test [2] is at most 100 nM. `CC(C)Cc1cn(-c2nc(C(=O)O)cs2)c2cc(C(F)(F)F)ccc12` [Example 13, 2-[3-(2-Methylpropyl)-6-(trifluoromethyl)-1H-indol-1-yl]-1,3-thiazole-4-carboxylic acid]: the Ki in test [1] is at most 100 nM. This compound had an IC50 in test [2] of at most 100 nM. In the case of `CCCc1cn(-c2nc(C(=O)O)cs2)c2cc(Cl)ccc12` [Example 1, 2-(6-Chloro-3-propyl-1H-indol-1-yl)-1,3-thiazole-4-carboxylic acid], the Ki in test [1] is at most 100 nM. In test [2], this compound had an IC50 of at most 100 nM. For the compound `CC(C)Cc1cn(-c2nc(C(=O)O)cs2)c2cc(F)ccc12` [Example 16, 2-[6-Fluoro-3-(2-methylpropyl)-1H-indol-1-yl]-1,3-thiazole-4-carboxylic acid], in test [1], the Ki was at most 100 nM. For the same compound, in test [2], the IC50 is at most 100 nM.

As for `O=C(O)c1csc(-n2cc(Cc3ccccc3)c3ccc(Cl)cc32)n1` [Example 8, 2-[6-Chloro-3-(phenylmethyl)-1H-indol-1-yl]-1,3-thiazole-4-carboxylic acid], the Ki in test [1] was at most 100 nM.

Turning to `CC(C)Cc1cn(-c2nc(C(=O)O)cs2)c2cc(Cl)ccc12` [Example 17, 2-[6-Chloro-3-(2-methylpropyl)-1H-indol-1-yl]-1,3-thiazole-4-carboxylic acid], in test [1], the Ki was at most 100 nM. Moreover, in test [2], the 50% inhibitory concentration (IC50) is at most 100 nM. Turning to `CC(C)Cc1cn(-c2nc(C(=O)NS(=O)(=O)c3ccccc3)cs2)c2cc(Cl)ccc12` [Example 23, 2-[6-Chloro-3-(2-methylpropyl)-1H-indol-1-yl]-N-(phenylsulfonyl)-1,3-thiazole-4-carboxamide], in test [1], the Ki was at most 100 nM. In addition, the IC50 in test [2] was at most 100 nM.

Consider `CC(C)Cc1cn(-c2nc(CC(=O)O)cs2)c2cc(Cl)ccc12` [Example 15, {2-[6-Chloro-3-(2-methylpropyl)-1H-indol-1-yl]-1,3-thiazol-4-yl}acetic acid], for which the Ki in test [1] is at most 100 nM. Turning to `CC(C)(C)Cc1cn(-c2nc(C(=O)O)cs2)c2cc(Cl)ccc12` [Example 12, 2-[6-Chloro-3-(2,2-dimethylpropyl)-1H-indol-1-yl]-1,3-thiazole-4-carboxylic acid], in test [1], the Ki is at most 100 nM. In test [2], this compound had a half-inhibitory concentration (IC50) of at most 100 nM. On to `CC(C)c1cn(-c2nc(C(=O)O)cs2)c2cc(Cl)ccc12` [Example 3, 2-[6-Chloro-3-(1-methylethyl)-1H-indol-1-yl]-1,3-thiazole-4-carboxylic acid], for which the Ki in test [1] was at most 100 nM. This compound also had a concentration for half-maximal inhibition (IC50) in test [2] of at most 100 nM. `CC(C)Cc1cn(-c2nc(C(=O)O)cs2)c2cc(Br)ccc12` [Example 4, 2-[6-Bromo-3-(2-methylpropyl)-1H-indol-1-yl]-1,3-thiazole-4-carboxylic acid]: the Ki in test [1] is at most 100 nM. This compound also gave an IC50 in test [2] of at most 100 nM. Take `Cc1ccc2c(CC(C)C)cn(-c3nc(C(=O)O)cs3)c2c1` [Example 24]: the Ki in test [1] was at most 100 nM. The compound also had an IC50 in test [2] of at most 100 nM.
